Data from PMC7571160, “Dibromopinocembrin and Dibromopinostrobin Are Potential Anti-Dengue Leads with Mild Animal Toxicity” (Molecules, 2020).
Read-outs that look alike come from different tables or passages of the source.

How the values were obtained:
[1] = test system: dengue virus serotype 2 (DENV2), New Guinea C strain; assay: DENV2 NGC effective concentration (EC50) test in LLC/MK2 cells, plaque titration; assay type: cell-based; conditions: for EC50: Dengue virus, DENV2 NGC in LLC/MK2 cells, MOI 0.1, 72 h, plaque titration; for SI NGC (CC50/EC50): LLC/MK2 CC50 / DENV2 NGC EC50
Description: (§1) LLC/MK2 were seeded at 5 × 10^4 cells per well of 24-well plate in growth medium and incubated overnight at 37 °C under 5% CO2. Cells were infected with DENV2 NGC at the multiplicity of infection (MOI) of 0.1 for 1 h with gentle rocking every 15 min. Cells were washed with PBS and incubated with MEM supplemented with 1% fetal bovine serum, 100 I.U./mL penicillin, and 100 μg/mL streptomycin. The compound was added to the virus-infected cells during and after infection. The cells were incubated for 72 h, unless otherwise indicated, at 37 °C under 5% CO2. Supernatants were collected and the viral infectivity was analyzed by 96-well plaque titration. Data were plotted and the EC50 values were calculated by nonlinear regression analysis. Each concentration was tested in duplicate and the results were reported as the means and standard deviation of three independent experiments. The selectivity index was calculated from the ratio of CC50 and EC50. Moreover, additional EC50s of TH002 and TH011 were also taken from Huh-7 (8 × 10^4 cells) and DENV2 16,681 (MOI of 1). Supernatants were collected after 72 h incubation for plaque titration EC50 values were calculated by nonlinear regression analysis. Data were presented by means and standard errors of three independent experiments.

[2] = Cytotoxic concentration (CC50) test, MTS, LLC/MK2; assay type: cell-based, Macaca mulatta (rhesus monkey); conditions: rhesus monkey, LLC/MK2 cells
Description: (§2) LLC/MK2, THP-1, HEK-293, HepG2, or Huh-7 cells were seeded at 10^4 cells per well of 96-well plate and incubated overnight. Compounds were prepared to 6-10 different concentrations in filter-sterilized dimethylsulfoxide (Merck®, Darmstadt, Germany) before addition to the cells. The plates were incubated for 48 h before the MTS reagent (Promega®, Madison, WI, USA) was added to cells according to the manufacturer's protocol and incubated for 4 h before analysis by spectrophotometry at […]. Huh-7 cytotoxicity was assessed by the Alamar Blue assay (Invitrogen®, Waltham, MA, USA) and read by fluorometry at the excitation and emission wavelengths at 570 and 600 nm, respectively. Each compound was tested in triplicate. Cytotoxic concentrations (CC50) were calculated while using non-linear regression analysis and the results were reported as means and standard deviation of three independent experiments.

[3] = Solubility observations in culture media and vehicles; assay type: physicochemical; conditions: for Concentration above which compound was only partially dissolved: cell culture test conditions; for Dissolution in culture media, DMSO and NSS: data not shown
[4] = test system: dengue virus serotype 2 (DENV2), New Guinea C strain; design: method as in Srivarangkul et al. 2018 [11]; conditions: ref Srivarangkul et al. 2018 [11]; read-out: DENV2 NGC EC50; cited from earlier work
LLC/MK2 cells = test system: LLC/MK2 cells; design: method as in Srivarangkul et al. 2018 [11]; conditions: ref Srivarangkul et al. 2018 [11]; cited from earlier work
Zika viruses = test system: Zika viruses; design: method as in PMID 30959074; conditions: read-out: Zika virus EC50; cited from earlier work
DENV NS3 protease = conditions: cited from earlier work
DENV NS5 polymerase = test system: DENV NS5 polymerase; design: method as in PMID 22050318; conditions: cited from earlier work
[5] = design: method as in PMID 25744566; conditions: rat, intravenous, 10 mg, single dose; cited from earlier work
[6] = design: method as in PMID 25744566; conditions: human, 20 mg, iv drip; cited from earlier work
DENV2 16681 = DENV2 16681 EC50 test in Huh-7 cells, plaque titration; assay type: cell-based, dengue virus serotype 2; conditions: for EC50: Dengue virus, DENV2 16681 in Huh-7 cells, MOI 1, 72 h, plaque titration; for SI (16681) (CC50/EC50): Huh-7 CC50 / DENV2 16681 EC50
Description: as §1

[7] = Cytotoxic concentration (CC50) test, MTS, THP-1; assay type: cell-based; conditions: human, THP-1 cells, THP-1, 48 h
Description: as §2

[8] = Cytotoxic concentration (CC50) test, MTS, HEK-293; assay type: cell-based; conditions: human, HEK-293 cells, HEK-293, 48 h
Description: as §2

[9] = Cytotoxic concentration (CC50) test, MTS, HepG2; assay type: cell-based; conditions: human, HepG2 cells, HepG2, 48 h
Description: as §2

[10] = Cytotoxic concentration (CC50) test, Alamar Blue, Huh-7; assay type: cell-based; conditions: human, Huh-7 cells; Huh-7, Alamar Blue
Description: as §2

C57BL/6 mice = assay: Animal toxicity study, intravenous administration; assay type: in vivo, mouse; conditions: 10 mg/kg intravenous
Description: The animal care and use protocol identification number 016-2562 was approved by the Institutional Animal Care and Use Committee (CU-ACUP) of the Faculty of Medicine, Chulalongkorn University, Bangkok, Thailand, based on the National Institutes of Health, USA’s criteria for the use and treatment of laboratory animals. Male 8-week-old C57BL/6 mice purchased from the National Laboratory Animal Center, Nakhornpathom, Thailand were used in the experiments. TH011 and TH002 were diluted with 10% DMSO in normal saline solution. The preparations were intravenously administered at the concentration of 10 mg/kg through a tail vein (n = 5/group). The 10% DMSO in normal saline solution was used as vehicle control. Blood were collected through tail vein nicking at day one, three, and eight after administration and the serum samples were kept at −80 °C until analysis. Renal function (serum creatinine; Scr) and liver function (serum alanine transaminase; ALT) were measured by colorimetric assays while using QuantiChromTM (DICT-500, BioAssay, Hayward, CA, USA) and EnzyChrom (EALT-100, BioAssay), respectively.

[11] = test system: DENV envelope-induced fusion; assay: Fusion inhibition study in C6/36 cells; assay type: cell-based, dengue virus serotype 2; conditions: 10 µM, DENV2 NGC-infected C6/36 cells, 0.5 M MES pH 5.5
Description: C6/36 were seeded at 1 × 10^5 cells per well of 24-well plate MEM that was supplemented with 10% FBS and incubated overnight at 28 °C. Cells were infected with the virus at the multiplicity of infection (MOI) of 1 for 1 h at 28 °C. Compounds TH002 and TH011 were diluted in DMSO and added to the infected cells to the final concentration of 10 µM in 1% DMSO after DENV2 NGC (M.O.I. of 1) infection. Cells were incubated with MEM supplemented with 1% fetal bovine serum for 48 h before the addition of 0.5 M MES. Cells were incubated for an additional 24–48 h at 28 °C until the fused cells were visualized under light microscope.
Figure S5. Fusion inhibition assay; TH002 and TH011 (10 µM) were incubated with the DENV2-infected cells for
2 days before addition of 0.5 M MES, pH 5.5. The 4G2 antibody was an inhibitor of DENV envelope fusion and
was used as a control. Pos and Neg were abbreviated from positive (DENV) and negative (media-only) controls,
(1 picture or pasted object on this page, not shown here)

DENV2 = test system: DENV2; design: method as in PMID 29360474; conditions: cited from earlier work
DENV 4 = test system: DENV 4; design: method as in PMID 29360474; conditions: read-out: DENV4 EC50; cited from earlier work

COc1cc2c(c(O)c1I)C(=O)CC(c1ccccc1)O2 (stereo not drawn) [TH018, 6-iodo-5-hydroxy-7-methoxyflavanone]
EC50 [1]: 4.1 ± 1.84 µM
SI NGC (CC50/EC50) [1]: >6.0945
CC50 at 48 h [2]: > 25 µM
Concentration above which compound was only partially dissolved [3]: > 25 µM

O=C1CC(c2ccccc2)Oc2cc(O)cc(O)c21 (stereo not drawn) [TH022, 5,7-dihydroxyflavanone]
SI NGC (CC50/EC50) [1]: >6.47
EC50 [4]: 15.5 µM
CC50 (LLC/MK2 cells): > 100 µM
EC50 (Zika viruses): 17.4 µM
DENV NS3 protease IC50 (DENV NS3 protease): 286.90 µg/mL
Inhibition of DENV NS5 polymerase activity (DENV NS5 polymerase): not inhibit
half-life [5]: 12 to 14 min
half-life [6]: 47 min

COc1c(Br)c(O)c2c(c1Br)OC(c1ccccc1)CC2=O (stereo not drawn) [TH002, 6,8-dibromo-5-hydroxy-7-methoxyflavanone]
EC50 [1]: 5.86 ± 0.507 µM
SI NGC (CC50/EC50) [1]: >17.0745,
EC50 (DENV2 16681): 3.19 µM
SI (16681) (CC50/EC50) (DENV2 16681): (23.9342)
CC50 at 48 h [2]: > 100 µM
CC50 at 48 h [7]: 51.8 ± 2.3 µM
CC50 at 48 h [8]: > 100 µM
CC50 at 48 h [9]: 49.9 ± 2.7 µM
CC50 at 48 h [10]: 76.4 ± 7.2 µM
ALT levels (hepatotoxicity) (C57BL/6 mice; day 1 and 3): mildly elevated
ALT levels (hepatotoxicity) (C57BL/6 mice; day 8): decreased to normal
Inhibition of DENV envelope-induced fusion under acidic pH [11]: no fusion inhibition observed
Dissolution in culture media, DMSO and NSS [3]: completely dissolved

COc1cc(O)c2c(c1)O[C@H](c1ccccc1)CC2=O [TH019, pinostrobin]
EC50 [1]: 10.8 ± 1.63 µM
SI NGC (CC50/EC50) [1]: 7.3242
CC50 at 48 h [2]: 78.8 ± 2.92 µM
DENV NS3 protease IC50 (DENV NS3 protease): 90.48 µg/mL
Ki (DENV NS3 protease): 345 ± 70 µM

COc1cc2c(c(O)c1C)C(=O)CC(c1ccccc1)O2 (stereo not drawn) [6-methylpinostrobin]
EC50 (DENV2): 16 ± 5.38 µM
EC50 (DENV 4): 11.7 ± 6.04 µM

COc1c(I)c(O)c2c(c1I)OC(c1ccccc1)CC2=O (stereo not drawn) [TH012, 6,8-diiodo-5-hydroxy-7-methoxyflavanone]
EC50 [1]: 2.8 ± 1.55 µM
SI NGC (CC50/EC50) [1]: >3.5714
CC50 at 48 h [2]: > 10 µM
Concentration above which compound was only partially dissolved [3]: exceeded 10 µM

O=C1CC(c2ccccc2)Oc2c(Br)c(O)c(Br)c(O)c21 (stereo not drawn) [TH011, 6,8-dibromo-5,7-dihydroxyflavanone]
EC50 [1]: 2.06 ± 0.754 µM
SI NGC (CC50/EC50) [1]: 32.5621
EC50 (DENV2 16681): 4.59 µM
SI (16681) (CC50/EC50) (DENV2 16681): (10.5201)
CC50 at 48 h [2]: 67.2 ± 0.973 µM
CC50 at 48 h [7]: > 100 µM
CC50 at 48 h [8]: 93.2 ± 5.99 µM
CC50 at 48 h [9]: > 100 µM
CC50 at 48 h [10]: 48.3 ± 4.11 µM
ALT levels (hepatotoxicity) (C57BL/6 mice; day 1 and 3): not obviously seen
Inhibition of DENV envelope-induced fusion under acidic pH [11]: no fusion inhibition observed
Dissolution in culture media, DMSO and NSS [3]: completely dissolved
